Reference: article PMC3913050 (Bioorganic & medicinal chemistry, 2013)

Columns and labels:
[1] = molecular target: dopamine transporter (DAT) (Rattus norvegicus, UniProt P23977); assay: Inhibition of [3H]DA uptake by DAT in rat striatum; type: biochemical
[2] = molecular target: norepinephrine transporter (NET) (Rattus norvegicus, UniProt Q63380); assay: Inhibition of [3H]DA uptake by NET in rat cerebral cortex
[3] = molecular target: serotonin transporter (SERT) (Rattus norvegicus, UniProt P31652); assay: Inhibition of [3H]5-HT uptake by SERT in rat cerebral cortex; type: biochemical
Chain of serotonin transporter (SERT) (P31652 whole entry): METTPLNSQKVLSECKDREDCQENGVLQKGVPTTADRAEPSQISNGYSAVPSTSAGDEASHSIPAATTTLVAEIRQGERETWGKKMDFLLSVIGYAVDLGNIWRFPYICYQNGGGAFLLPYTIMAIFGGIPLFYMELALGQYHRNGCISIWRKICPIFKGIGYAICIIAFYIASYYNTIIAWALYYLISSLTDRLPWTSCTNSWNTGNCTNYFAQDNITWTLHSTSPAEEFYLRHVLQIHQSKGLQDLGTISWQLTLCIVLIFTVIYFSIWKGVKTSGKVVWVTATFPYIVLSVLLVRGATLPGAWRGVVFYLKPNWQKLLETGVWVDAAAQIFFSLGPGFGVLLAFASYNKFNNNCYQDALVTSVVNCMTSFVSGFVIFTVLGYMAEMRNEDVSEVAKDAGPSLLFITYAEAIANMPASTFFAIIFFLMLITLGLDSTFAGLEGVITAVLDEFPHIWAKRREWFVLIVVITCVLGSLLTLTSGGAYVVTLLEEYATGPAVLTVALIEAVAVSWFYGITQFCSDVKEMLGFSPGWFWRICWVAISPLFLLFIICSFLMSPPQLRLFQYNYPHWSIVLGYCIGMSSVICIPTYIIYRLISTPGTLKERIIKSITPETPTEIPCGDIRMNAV

Chain of norepinephrine transporter (NET) (Q63380 1-617): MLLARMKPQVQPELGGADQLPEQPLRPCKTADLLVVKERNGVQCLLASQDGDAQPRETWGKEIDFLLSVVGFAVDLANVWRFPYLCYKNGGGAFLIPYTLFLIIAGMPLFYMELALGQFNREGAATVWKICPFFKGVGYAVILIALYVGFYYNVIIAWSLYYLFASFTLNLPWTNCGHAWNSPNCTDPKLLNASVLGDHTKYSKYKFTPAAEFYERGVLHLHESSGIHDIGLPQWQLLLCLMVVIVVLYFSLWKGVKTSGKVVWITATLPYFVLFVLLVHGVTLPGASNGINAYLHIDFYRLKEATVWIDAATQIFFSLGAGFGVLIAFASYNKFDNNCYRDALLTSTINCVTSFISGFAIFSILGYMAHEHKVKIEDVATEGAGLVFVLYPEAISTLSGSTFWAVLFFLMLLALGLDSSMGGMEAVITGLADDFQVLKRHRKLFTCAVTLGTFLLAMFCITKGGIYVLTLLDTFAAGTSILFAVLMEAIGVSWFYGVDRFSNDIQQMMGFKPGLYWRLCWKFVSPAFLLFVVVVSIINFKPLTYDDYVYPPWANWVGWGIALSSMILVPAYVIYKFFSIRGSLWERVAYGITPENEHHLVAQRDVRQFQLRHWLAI
Chain of dopamine transporter (DAT) (P23977 whole entry): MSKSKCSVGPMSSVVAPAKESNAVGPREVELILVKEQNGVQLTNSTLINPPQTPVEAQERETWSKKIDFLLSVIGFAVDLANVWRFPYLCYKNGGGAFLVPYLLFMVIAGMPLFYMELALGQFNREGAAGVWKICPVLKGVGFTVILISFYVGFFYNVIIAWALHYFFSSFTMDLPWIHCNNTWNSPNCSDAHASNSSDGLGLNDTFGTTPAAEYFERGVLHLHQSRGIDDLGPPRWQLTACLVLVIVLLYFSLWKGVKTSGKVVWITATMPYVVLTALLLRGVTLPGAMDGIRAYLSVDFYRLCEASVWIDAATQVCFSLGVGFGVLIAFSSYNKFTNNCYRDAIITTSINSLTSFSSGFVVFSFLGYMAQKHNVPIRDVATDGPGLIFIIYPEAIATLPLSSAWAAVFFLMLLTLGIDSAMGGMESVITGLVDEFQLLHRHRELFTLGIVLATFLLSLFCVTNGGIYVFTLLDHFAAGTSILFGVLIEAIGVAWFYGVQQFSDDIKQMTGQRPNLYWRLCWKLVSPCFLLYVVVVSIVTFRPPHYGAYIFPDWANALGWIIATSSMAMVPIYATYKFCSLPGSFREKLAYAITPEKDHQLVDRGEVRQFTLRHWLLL

| activity against DAT (in words) ([1]; uptake inhibition) | activity against NET (in words) ([2]; uptake inhibition) | activity against SERT (in words) ([3]; uptake inhibition) | Compound | Ki ([1]; read-out: Ki uptake inhibition, DAT, text value in µM) | Ki ([2]; read-out: Ki uptake inhibition, NET, text value in µM) | Ki ([3]; read-out: Ki uptake inhibition, SERT, text value in µM) |
| --- | --- | --- | --- | --- | --- | --- |
| weak activity | weak activity | inactive | c1ccc(CCN[C@@H]2CO[C@H](C(c3ccccc3)c3ccccc3)C2)cc1 [compound 44, (3S,5S)-5-benzhydryl-N-phenethyltetrahydrofuran-3-amine] |  |  |  |
|  |  |  | 3-((((3S,5S)-5-benzhydryltetrahydrofuran-3-yl)amino)methyl)phenol [compound 40] | 0.94 µM | 1.51 µM | 1.15 µM |
